Test results as given in patent US20260266848A1, “COMPOSITIONS AND METHODS FOR DIAGNOSING AND TREATING DYSTONIA” (Duke University, priority 2023, published 2026).
“And” between values parts separate entries of the source, which are not always exact repeats. Equal values may be shown once.

Test system: DYT-TOR1A MEF EVs
Assay: Quantitative LC-MS/MS proteomics of EVs from drug-treated DYT-TOR1A MEF cultures (ritonavir, salubrinal)
Assay type: cell-based, mouse
Conditions: 24 h

CC(C)c1nc(CN(C)C(=O)N[C@H](C(=O)N[C@@H](Cc2ccccc2)C[C@H](O)[C@H](Cc2ccccc2)NC(=O)OCc2cncs2)C(C)C)cs1 [ritonavir]
DYT-TOR1A genotype-disrupted EV proteins (n=363) with significant changes in abundance following ritonavir treatment (20 μM ritonavir, p≤0.05): > 60% and 63% | DYT-TOR1A genotype-dependent protein disruptions changed by ritonavir in the corrective direction (20 μM): 95% | putative DYT biomarkers with ritonavir effects on protein abundance in the corrective direction (20 μM, independent of p-value, of 363 proteins): 344/363 | DYT EV proteome significantly modified by ritonavir (20 μM, uncorrected p<0.05, 1974 proteins): 29% | Acaa1a (ACAA1) EV abundance Log2_FC (DYT1+RTV/DYT1, 20 μM): 0.8675 | Ano6 (ANO6) EV abundance Log2_FC (DYT1+RTV/DYT1, 20 μM): 0.08584 | Ap1b1 (AP1B1) EV abundance Log2_FC (DYT1+RTV/DYT1, 20 μM): 1.328 | Arl8b (ARL8B) EV abundance Log2_FC (DYT1+RTV/DYT1, 20 μM): 0.4007 | Bzw2 (BZW2) EV abundance Log2_FC (DYT1+RTV/DYT1, 20 μM): 0.8082 | Cryab (CRYAB) EV abundance Log2_FC (DYT1+RTV/DYT1, 20 μM): 0.42 | DIst (DLST) EV abundance Log2_FC (DYT1+RTV/DYT1, 20 μM): −0.4459 | Ehd4 (EHD4) EV abundance Log2_FC (DYT1+RTV/DYT1, 20 μM): 0.07182 | Flna (FLNA) EV abundance Log2_FC (DYT1+RTV/DYT1, 20 μM): 0.3721 | Fscn1 (FSCN1) EV abundance Log2_FC (DYT1+RTV/DYT1, 20 μM): 0.402 | Gart (GART) EV abundance Log2_FC (DYT1+RTV/DYT1, 20 μM): 0.677 | Hist1h1b (H1-5) EV abundance Log2_FC (DYT1+RTV/DYT1, 20 μM): 0.9834 | Hnrnpc (HNRNPC) EV abundance Log2_FC (DYT1+RTV/DYT1, 20 μM): −0.1273 | Ipo9 (IPO9) EV abundance Log2_FC (DYT1+RTV/DYT1, 20 μM): 1.122 | Jam3 (JAM3) EV abundance Log2_FC (DYT1+RTV/DYT1, 20 μM): −1.301 | Lipg (LIPG) EV abundance Log2_FC (DYT1+RTV/DYT1, 20 μM): 1.299 | Lrrc59 (LRRC59) EV abundance Log2_FC (DYT1+RTV/DYT1, 20 μM): 0.1624 | Mapk3 (MAPK3) EV abundance Log2_FC (DYT1+RTV/DYT1, 20 μM): 1.986 | Mars (MARS1) EV abundance Log2_FC (DYT1+RTV/DYT1, 20 μM): 0.5148 | Mrc2 (MRC2) EV abundance Log2_FC (DYT1+RTV/DYT1, 20 μM): −0.09834 | Myh9 (MYH9) EV abundance Log2_FC (DYT1+RTV/DYT1, 20 μM): −0.00905 | Ndnf (NDNF) EV abundance Log2_FC (DYT1+RTV/DYT1, 20 μM): 0.4697 | Pcmt1 (PCMT1) EV abundance Log2_FC (DYT1+RTV/DYT1, 20 μM): 2.547 | Pi4ka (PI4KA) EV abundance Log2_FC (DYT1+RTV/DYT1, 20 μM): −0.3588 | Pitpnb (PITPNB) EV abundance Log2_FC (DYT1+RTV/DYT1, 20 μM): 0.7296 | Prpsap2 (PRPSAP2) EV abundance Log2_FC (DYT1+RTV/DYT1, 20 μM): −0.08407 | Psmc5 (PSMC5) EV abundance Log2_FC (DYT1+RTV/DYT1, 20 μM): 0.4559 | Psmd12 (PSMD12) EV abundance Log2_FC (DYT1+RTV/DYT1, 20 μM): 1.09 | Psme4 (PSME4) EV abundance Log2_FC (DYT1+RTV/DYT1, 20 μM): 1.371 | Ptma (PTMA) EV abundance Log2_FC (DYT1+RTV/DYT1, 20 μM): −0.8532 | Rap2b (RAP2B) EV abundance Log2_FC (DYT1+RTV/DYT1, 20 μM): 0.3342 | Rbm3 (RBM3) EV abundance Log2_FC (DYT1+RTV/DYT1, 20 μM): −0.1048 | Rhoa (RHOA) EV abundance Log2_FC (DYT1+RTV/DYT1, 20 μM): 0.1985 | Rpl10 (RPL10) EV abundance Log2_FC (DYT1+RTV/DYT1, 20 μM): 0.5214 | Rpl13a (RPL13A) EV abundance Log2_FC (DYT1+RTV/DYT1, 20 μM): 0.6732 | Rps13 (RPS13) EV abundance Log2_FC (DYT1+RTV/DYT1, 20 μM): 0.02007 | Sec31a (SEC31A) EV abundance Log2_FC (DYT1+RTV/DYT1, 20 μM): 0.8357 | Slc2a1 (SLC2A1) EV abundance Log2_FC (DYT1+RTV/DYT1, 20 μM): −0.03153 | Stom (STOM) EV abundance Log2_FC (DYT1+RTV/DYT1, 20 μM): 0.1986 | Tardbp (TARDBP) EV abundance Log2_FC (DYT1+RTV/DYT1, 20 μM): 0.2272 | Tgfb2 (TGFB2) EV abundance Log2_FC (DYT1+RTV/DYT1, 20 μM): −0.7218 | Tln1 (TLN1) EV abundance Log2_FC (DYT1+RTV/DYT1, 20 μM): 0.1451 | Tln2 (TLN2) EV abundance Log2_FC (DYT1+RTV/DYT1, 20 μM): 0.6441 | Tubb1 (TUBB1) EV abundance Log2_FC (DYT1+RTV/DYT1, 20 μM): −0.05972 | Usp7 (USP7) EV abundance Log2_FC (DYT1+RTV/DYT1, 20 μM): 1.189 | Wdr26 (WDR26) EV abundance Log2_FC (DYT1+RTV/DYT1, 20 μM): 1.2 | Zyx (ZYX) EV abundance Log2_FC (DYT1+RTV/DYT1, 20 μM): −0.3666 | Acaa1a (ACAA1) EV abundance Cohen's d (DYT + RTV/DYT, 20 μM): 1.381 | Ano6 (ANO6) EV abundance Cohen's d (DYT + RTV/DYT, 20 μM): 0.2001 | Ap1b1 (AP1B1) EV abundance Cohen's d (DYT + RTV/DYT, 20 μM): 3.258 | Arl8b (ARL8B) EV abundance Cohen's d (DYT + RTV/DYT, 20 μM): 0.9032 | Bzw2 (BZW2) EV abundance Cohen's d (DYT + RTV/DYT, 20 μM): 1.685 | Cryab (CRYAB) EV abundance Cohen's d (DYT + RTV/DYT, 20 μM): 0.7088 | DIst (DLST) EV abundance Cohen's d (DYT + RTV/DYT, 20 μM): −1.437 | Ehd4 (EHD4) EV abundance Cohen's d (DYT + RTV/DYT, 20 μM): 0.2557 | Flna (FLNA) EV abundance Cohen's d (DYT + RTV/DYT, 20 μM): 1.357 | Fscn1 (FSCN1) EV abundance Cohen's d (DYT + RTV/DYT, 20 μM): 2.995 | Gart (GART) EV abundance Cohen's d (DYT + RTV/DYT, 20 μM): 2.137 | Hist1h1b (H1-5) EV abundance Cohen's d (DYT + RTV/DYT, 20 μM): 1.182 | Hnrnpc (HNRNPC) EV abundance Cohen's d (DYT + RTV/DYT, 20 μM): −0.2031 | Ipo9 (IPO9) EV abundance Cohen's d (DYT + RTV/DYT, 20 μM): 4.135 | Jam3 (JAM3) EV abundance Cohen's d (DYT + RTV/DYT, 20 μM): −2.624 | Lipg (LIPG) EV abundance Cohen's d (DYT + RTV/DYT, 20 μM): 2.834 | Lrrc59 (LRRC59) EV abundance Cohen's d (DYT + RTV/DYT, 20 μM): 0.8879 | Mapk3 (MAPK3) EV abundance Cohen's d (DYT + RTV/DYT, 20 μM): 2.384 | Mars (MARS1) EV abundance Cohen's d (DYT + RTV/DYT, 20 μM): 2.211 | Mrc2 (MRC2) EV abundance Cohen's d (DYT + RTV/DYT, 20 μM): −0.4039 | Myh9 (MYH9) EV abundance Cohen's d (DYT + RTV/DYT, 20 μM): −0.03876 | Ndnf (NDNF) EV abundance Cohen's d (DYT + RTV/DYT, 20 μM): 0.353 | Pcmt1 (PCMT1) EV abundance Cohen's d (DYT + RTV/DYT, 20 μM): 5.975 | Pi4ka (PI4KA) EV abundance Cohen's d (DYT + RTV/DYT, 20 μM): −0.6453 | Pitpnb (PITPNB) EV abundance Cohen's d (DYT + RTV/DYT, 20 μM): 2.824 | Prpsap2 (PRPSAP2) EV abundance Cohen's d (DYT + RTV/DYT, 20 μM): −0.1421 | Psmc5 (PSMC5) EV abundance Cohen's d (DYT + RTV/DYT, 20 μM): 2.883 | Psmd12 (PSMD12) EV abundance Cohen's d (DYT + RTV/DYT, 20 μM): 10.6 | Psme4 (PSME4) EV abundance Cohen's d (DYT + RTV/DYT, 20 μM): 3.22 | Ptma (PTMA) EV abundance Cohen's d (DYT + RTV/DYT, 20 μM): −2.366 | Rap2b (RAP2B) EV abundance Cohen's d (DYT + RTV/DYT, 20 μM): 0.7129 | Rbm3 (RBM3) EV abundance Cohen's d (DYT + RTV/DYT, 20 μM): −0.4328 | Rhoa (RHOA) EV abundance Cohen's d (DYT + RTV/DYT, 20 μM): 0.3039 | Rpl10 (RPL10) EV abundance Cohen's d (DYT + RTV/DYT, 20 μM): 0.7944 | Rpl13a (RPL13A) EV abundance Cohen's d (DYT + RTV/DYT, 20 μM): 0.9222 | Rps13 (RPS13) EV abundance Cohen's d (DYT + RTV/DYT, 20 μM): 0.06202 | Sec31a (SEC31A) EV abundance Cohen's d (DYT + RTV/DYT, 20 μM): 4.402 | Slc2a1 (SLC2A1) EV abundance Cohen's d (DYT + RTV/DYT, 20 μM): −0.04516 | Stom (STOM) EV abundance Cohen's d (DYT + RTV/DYT, 20 μM): 0.4181 | Tardbp (TARDBP) EV abundance Cohen's d (DYT + RTV/DYT, 20 μM): 0.6116 | Tgfb2 (TGFB2) EV abundance Cohen's d (DYT + RTV/DYT, 20 μM): −1.388 | Tln1 (TLN1) EV abundance Cohen's d (DYT + RTV/DYT, 20 μM): 1.026 | Tln2 (TLN2) EV abundance Cohen's d (DYT + RTV/DYT, 20 μM): 1.031 | Tubb1 (TUBB1) EV abundance Cohen's d (DYT + RTV/DYT, 20 μM): −0.1131 | Usp7 (USP7) EV abundance Cohen's d (DYT + RTV/DYT, 20 μM): 7.143 | Wdr26 (WDR26) EV abundance Cohen's d (DYT + RTV/DYT, 20 μM): 3.714 | Zyx (ZYX) EV abundance Cohen's d (DYT + RTV/DYT, 20 μM): −0.7038 | Pearson r between ritonavir and salubrinal effects on putative DYT-TOR1A biomarker proteins (DYT-TOR1A MEF EVs, 20 μM each): 0.47
